In patent publication US20220031695A1, “SHP2 INHIBITOR COMPOSITIONS FOR USE IN TREATING CANCER” (Revolution Medicines, Inc., priority 2018, published 2022) one finds IC50 and progression-free survival data, which are given here for two compounds.

In one test the target is T1, SHP2 (Homo sapiens, UniProt Q06124).
T1 sequence (Q06124 1-593): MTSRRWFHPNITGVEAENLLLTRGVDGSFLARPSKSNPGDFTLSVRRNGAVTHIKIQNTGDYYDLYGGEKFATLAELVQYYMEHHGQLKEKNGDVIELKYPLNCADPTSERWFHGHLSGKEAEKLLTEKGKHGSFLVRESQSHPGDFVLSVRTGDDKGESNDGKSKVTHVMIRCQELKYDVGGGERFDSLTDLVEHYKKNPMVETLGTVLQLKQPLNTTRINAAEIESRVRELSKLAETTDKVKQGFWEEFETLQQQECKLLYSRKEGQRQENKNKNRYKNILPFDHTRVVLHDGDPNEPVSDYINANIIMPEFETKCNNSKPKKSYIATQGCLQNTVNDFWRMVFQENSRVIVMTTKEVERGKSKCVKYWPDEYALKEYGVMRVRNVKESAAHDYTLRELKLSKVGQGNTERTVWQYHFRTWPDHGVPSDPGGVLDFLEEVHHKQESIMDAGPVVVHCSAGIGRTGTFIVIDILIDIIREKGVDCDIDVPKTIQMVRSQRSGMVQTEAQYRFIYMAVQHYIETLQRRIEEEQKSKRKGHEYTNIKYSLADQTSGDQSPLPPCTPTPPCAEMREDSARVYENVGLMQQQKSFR
Put plainly: SHP2 allosteric inhibition assay (DiFMUP prompt fluorescence). The class given is biochemical. The settings on record: 0.2 nM SHP2, 0.5 μM activating peptide, DiFMUP substrate. The source says: Without wishing to be bound by theory, SHP is allosterically activated through binding of bis-tyrosyl-phosphorylated peptides to its Src Homology 2 (SH2) domains. The latter activation step leads to the release of the auto-inhibitory interface of SHP2, which in turn renders the SHP2 protein tyrosine phosphatase (PTP) active and available for substrate recognition and reaction catalysis. The catalytic activity of SHP2 was monitored using the surrogate substrate DiFMUP in a prompt fluorescence assay format.
The phosphatase reactions were performed at room temperature in 96-well black polystyrene plate, flat bottom, non-binding surface (Corning, Cat #3650) using a final reaction volume of 100 μL and the following assay buffer conditions: 50 mM HEPES, pH 7.2, 100 mM NaCl, 0.5 mM EDTA, 0.05% P-20, 1 mM DTT.
The inhibition of SHP2 by RMC-3943, RMC-4550, and Compound C was monitored using an assay in which 0.2 nM of SHP2 was incubated with 0.5 μM of Activating Peptide 1 (sequence: H2N-LN(pY)IDLDLV(dPEG8)LST(pY)ASINFQK-amide) (SEQ ID NO: 1) or Activating Peptide 2 (sequence: H2N-LN(pY)AQLWHA(dPEG8)LTI(pY)ATIRRF-amide) (SEQ ID NO: 2). After 30-60 minutes incubation at 25° C., the surrogate substrate DiFMUP (Invitrogen, Cat #D6567) was added to the reaction and activity was determined by a kinetic read using a microplate reader (Envision, Perkin-Elmer or Spectramax M5, Molecular Devices). […]

The subject of test [1] is ROS1 fusion-positive NSCLC. The settings on record: patients harboring ROS1 fusion-positive NSCLC; cited from earlier work.

At SHP2, `Nc1nc(N2CCC3(CCC[C@H]3N)CC2)cnc1Sc1ccnc(Cl)c1Cl` [RMC-3943] showed an IC50 of 2.19 nM.

Turning to `C[C@@H](Oc1cc(-c2cnn(C3CCNCC3)c2)cnc1N)c1c(Cl)ccc(F)c1Cl` [crizotinib], the progression-free survival in test [1] is on record as 19 month.
